Experimental data reported in patent publication US6855513B1 (priority 1999, dated 2005).

What was measured:
qsc101 = assay: Acyl-HSL induction of β-galactosidase in qsc101 mutant; format: cell-based, Pseudomonas aeruginosa; settings: qsc101, Class I; 3OC12-HSL 2 μM, C4-HSL 5 μM
qsc131 (PhzC) = assay: Acyl-HSL induction of β-galactosidase in qsc131 mutant; format: cell-based, Pseudomonas aeruginosa; settings: qsc131, Class III; 3OC12-HSL 2 μM, C4-HSL 5 μM
qsc116 = assay: Acyl-HSL induction of β-galactosidase in qsc116 mutant; format: cell-based, Pseudomonas aeruginosa; settings: qsc116, Class II; 3OC12-HSL 2 μM, C4-HSL 5 μM
qsc108 (ORF 5) = assay: Acyl-HSL induction of β-galactosidase in qsc108 mutant; format: cell-based, Pseudomonas aeruginosa; settings: qsc108, Class II; 3OC12-HSL 2 μM, C4-HSL 5 μM
[1] = tested on: qsc113 (Trransmembrane protein); assay: Acyl-HSL induction of β-galactosidase in qsc113 mutant; format: cell-based, Pseudomonas aeruginosa; settings: qsc113, Class II; 3OC12-HSL 2 μM, C4-HSL 5 μM
qsc115 = assay: Acyl-HSL induction of β-galactosidase in qsc115 mutant; format: cell-based, Pseudomonas aeruginosa; settings: qsc115, Class II; 3OC12-HSL 2 μM, C4-HSL 5 μM
[2] = tested on: qsc105 (FAD-binding protein); assay: Acyl-HSL induction of β-galactosidase in qsc105 mutant; format: cell-based, Pseudomonas aeruginosa; settings: qsc105, Class I; 3OC12-HSL 2 μM, C4-HSL 5 μM
[3] = tested on: qsc125 (Zeaxanthin synthesis); assay: Acyl-HSL induction of β-galactosidase in qsc125 mutant; format: cell-based, Pseudomonas aeruginosa; settings: qsc125, Class III; 3OC12-HSL 2 μM, C4-HSL 5 μM
[4] = tested on: qsc130 (glc operon transcriptional activator); assay: Acyl-HSL induction of β-galactosidase in qsc130 mutant; format: cell-based, Pseudomonas aeruginosa; settings: qsc130, Class III; 3OC12-HSL 2 μM, C4-HSL 5 μM
[5] = tested on: qsc100 (Peptide synthetase); assay: Acyl-HSL induction of β-galactosidase in qsc100 mutant; format: cell-based, Pseudomonas aeruginosa; settings: qsc100, Class I; 3OC12-HSL 2 μM, C4-HSL 5 μM
qsc107 = assay: Acyl-HSL induction of β-galactosidase in qsc107 mutant; format: cell-based, Pseudomonas aeruginosa; settings: qsc107, Class I; 3OC12-HSL 2 μM, C4-HSL 5 μM
[6] = tested on: qsc111 (Pyoverdine synthetase D); assay: Acyl-HSL induction of β-galactosidase in qsc111 mutant; format: cell-based, Pseudomonas aeruginosa; settings: qsc111, Class II; 3OC12-HSL 2 μM, C4-HSL 5 μM
[7] = tested on: qsc120 (Chloramphenicol resistance); assay: Acyl-HSL induction of β-galactosidase in qsc120 mutant; format: cell-based, Pseudomonas aeruginosa; settings: qsc120, Class III; 3OC12-HSL 2 μM, C4-HSL 5 μM
[8] = tested on: qsc135 (Cytochrome C precursor); assay: Acyl-HSL induction of β-galactosidase in qsc135 mutant; format: cell-based, Pseudomonas aeruginosa; settings: qsc135, Class IV; 3OC12-HSL 2 μM, C4-HSL 5 μM
[9] = tested on: qsc121 (3-Oxoacyl ACP synthase); assay: Acyl-HSL induction of β-galactosidase in qsc121 mutant; format: cell-based, Pseudomonas aeruginosa; settings: qsc121, Class III; 3OC12-HSL 2 μM, C4-HSL 5 μM
[10] = tested on: qsc126 (Pristanimycin I synthase 3 & 4); assay: Acyl-HSL induction of β-galactosidase in qsc126 mutant; format: cell-based, Pseudomonas aeruginosa; settings: qsc126, Class III; 3OC12-HSL 2 μM, C4-HSL 5 μM
qsc133A&B (AcrB) = assay: Acyl-HSL induction of β-galactosidase in qsc133A&B mutants; format: cell-based, Pseudomonas aeruginosa; settings: Class IV, 3OC12-HSL 2 μM, C4-HSL 5 μM
qsc114 = assay: Acyl-HSL induction of β-galactosidase in qsc114 mutant; format: cell-based, Pseudomonas aeruginosa; settings: qsc114, Class II; 3OC12-HSL 2 μM, C4-HSL 5 μM
[11] = tested on: qsc123 (9-Cis retinol dehydrogenase); assay: Acyl-HSL induction of β-galactosidase in qsc123 mutant; format: cell-based, Pseudomonas aeruginosa; settings: qsc123, Class III; 3OC12-HSL 2 μM, C4-HSL 5 μM
qsc103 = assay: Acyl-HSL induction of β-galactosidase in qsc103 mutant; format: cell-based, Pseudomonas aeruginosa; settings: qsc103, Class I; 3OC12-HSL 2 μM, C4-HSL 5 μM
[12] = tested on: qsc112A&B (Aculeacin A acylase); assay: Acyl-HSL induction of β-galactosidase in qsc112A&B mutants; format: cell-based, Pseudomonas aeruginosa; settings: Class II, 3OC12-HSL 2 μM, C4-HSL 5 μM
[13] = tested on: qsc132A&B (Unknown (B. pertusis)); assay: Acyl-HSL induction of β-galactosidase in qsc132A&B mutants; format: cell-based, Pseudomonas aeruginosa; settings: Class IV, 3OC12-HSL 2 μM, C4-HSL 5 μM
qtc136 = assay: Acyl-HSL induction of β-galactosidase in qtc136 mutant; format: cell-based, Pseudomonas aeruginosa; settings: qtc136, Class IV; 3OC12-HSL 2 μM, C4-HSL 5 μM
[14] = tested on: qsc122A&B (Cytochrome p450); settings: Class III, 3OC12-HSL 2 μM, C4-HSL 5 μM

## CCCCCCCCCC(=O)CC(=O)N[C@H]1CCOC1=O [3OC12-HSL, N-(3-oxododecanoyl) homoserine lactone]
qsc101
  Signal response (β-galactosidase activity with signal(s) divided by activity without added signals), maximum: 145
qsc131 (PhzC)
  Signal response (β-galactosidase activity with signal(s) divided by activity without added signals), maximum: 50
qsc116
  Signal response (β-galactosidase activity with signal(s) divided by activity without added signals), maximum: 5
qsc108 (ORF 5)
  Signal response (β-galactosidase activity with signal(s) divided by activity without added signals), maximum: 13
[1]
  Signal response (β-galactosidase activity with signal(s) divided by activity without added signals), maximum: 5
qsc115
  Signal response (β-galactosidase activity with signal(s) divided by activity without added signals), maximum: 4
[2]
  Signal response (β-galactosidase activity with signal(s) divided by activity without added signals), maximum: 40
[3]
  Signal response (β-galactosidase activity with signal(s) divided by activity without added signals), maximum: 20
[4]
  Signal response (β-galactosidase activity with signal(s) divided by activity without added signals), maximum: 5
[5]
  Signal response (β-galactosidase activity with signal(s) divided by activity without added signals), maximum: 65
qsc107
  Signal response (β-galactosidase activity with signal(s) divided by activity without added signals), maximum: 44
[6]
  Signal response (β-galactosidase activity with signal(s) divided by activity without added signals), maximum: 11
[7]
  Signal response (β-galactosidase activity with signal(s) divided by activity without added signals), maximum: 3
[8]
  Signal response (β-galactosidase activity with signal(s) divided by activity without added signals), maximum: 3
[9]
  Signal response (β-galactosidase activity with signal(s) divided by activity without added signals), maximum: 13
[10]
  Signal response (β-galactosidase activity with signal(s) divided by activity without added signals), maximum: 3
qsc133A&B (AcrB)
  Signal response (β-galactosidase activity with signal(s) divided by activity without added signals), maximum: 1
qsc114
  Signal response (β-galactosidase activity with signal(s) divided by activity without added signals), maximum: 9
[11]
  Signal response (β-galactosidase activity with signal(s) divided by activity without added signals), maximum: 14
qsc103
  Signal response (β-galactosidase activity with signal(s) divided by activity without added signals), maximum: 85
[12]
  Signal response (β-galactosidase activity with signal(s) divided by activity without added signals), maximum: 15
[13]
  Signal response (β-galactosidase activity with signal(s) divided by activity without added signals), maximum: 1
qtc136
  Signal response (β-galactosidase activity with signal(s) divided by activity without added signals), maximum: 7
[14]
  Signal response (β-galactosidase activity with signal(s) divided by activity without added signals), maximum: 2

## CCCC(=O)N[C@H]1CCOC1=O [C4-HSL, butanoyl-HSL]
qsc101
  Signal response (β-galactosidase activity with signal(s) divided by activity without added signals), maximum: 1
qsc131 (PhzC)
  Signal response (β-galactosidase activity with signal(s) divided by activity without added signals), maximum: 168
qsc116
  Signal response (β-galactosidase activity with signal(s) divided by activity without added signals), maximum: 1
qsc108 (ORF 5)
  Signal response (β-galactosidase activity with signal(s) divided by activity without added signals), maximum: 1
[1]
  Signal response (β-galactosidase activity with signal(s) divided by activity without added signals), maximum: 1
qsc115
  Signal response (β-galactosidase activity with signal(s) divided by activity without added signals), maximum: 1
[2]
  Signal response (β-galactosidase activity with signal(s) divided by activity without added signals), maximum: 1
[3]
  Signal response (β-galactosidase activity with signal(s) divided by activity without added signals), maximum: 65
[4]
  Signal response (β-galactosidase activity with signal(s) divided by activity without added signals), maximum: 1
[5]
  Signal response (β-galactosidase activity with signal(s) divided by activity without added signals), maximum: 3
qsc107
  Signal response (β-galactosidase activity with signal(s) divided by activity without added signals), maximum: 2
[6]
  Signal response (β-galactosidase activity with signal(s) divided by activity without added signals), maximum: 1
[7]
  Signal response (β-galactosidase activity with signal(s) divided by activity without added signals), maximum: 7
[8]
  Signal response (β-galactosidase activity with signal(s) divided by activity without added signals), maximum: 1
[9]
  Signal response (β-galactosidase activity with signal(s) divided by activity without added signals), maximum: 27
[10]
  Signal response (β-galactosidase activity with signal(s) divided by activity without added signals), maximum: 5
qsc133A&B (AcrB)
  Signal response (β-galactosidase activity with signal(s) divided by activity without added signals), maximum: 1
qsc114
  Signal response (β-galactosidase activity with signal(s) divided by activity without added signals), maximum: 1
[11]
  Signal response (β-galactosidase activity with signal(s) divided by activity without added signals), maximum: 28
qsc103
  Signal response (β-galactosidase activity with signal(s) divided by activity without added signals), maximum: 1
[12]
  Signal response (β-galactosidase activity with signal(s) divided by activity without added signals), maximum: 1
[13]
  Signal response (β-galactosidase activity with signal(s) divided by activity without added signals), maximum: 1
qtc136
  Signal response (β-galactosidase activity with signal(s) divided by activity without added signals), maximum: 3
[14]
  Signal response (β-galactosidase activity with signal(s) divided by activity without added signals), maximum: 10
